Source: US9644011B2 (priority 2005, dated 2017)

Tests used:
[1] = test system: muscle strength of mice; details: mouse, in vivo
[2] = test system: mouse sciatic nerve; details: cited from earlier work

Compound | time to decrease of 50% of the relative strength [1] | concentration necessary for similar inhibitory effect on mouse sciatic nerve [2]
CCN(CC)CCOC(=O)c1ccc(N)cc1 [procaine] | ~10 min | –
CCN(CC)CC(=O)Nc1c(C)cccc1C [lidocaine] | – | Millimolar concentrations
